# Experimental data from ChEMBL document CHEMBL4507292 (2021).
# Experiments:
# [1] = molecular target: Sigma non-opioid intracellular receptor 1 (Homo sapiens, UniProt Q99720); assay: GPCRScan assay: inhibition of Sigma 1; design: radioligand conc. used [nm] 4.0 – 5.0, parental cells HEKT
# [2] = molecular target: AP2-associated protein kinase 1 (Homo sapiens) (UniProt Q2M2I8); conditions: Compound concentration 1000.0 nM
# [3] = system: Tyrosine-protein kinase ABL1 (Homo sapiens), P00519 [Q252H]; conditions: Compound concentration 1000.0 nM
# [4] = system: Tyrosine-protein kinase ABL1 (Homo sapiens), P00519 [T315I]; conditions: Compound concentration 1000.0 nM
# [5] = molecular target: Activin receptor type-1 (Homo sapiens) (UniProt Q04771); conditions: Compound concentration 1000.0 nM
# [6] = molecular target: Serine/threonine-protein kinase BRSK2 (Homo sapiens) (UniProt Q8IWQ3); conditions: Compound concentration 1000.0 nM
# [7] = molecular target: Serine/threonine-protein kinase DCLK3 (Homo sapiens) (UniProt Q9C098); conditions: Compound concentration 1000.0 nM
# [8] = molecular target: Epidermal growth factor receptor (Homo sapiens, UniProt P00533); conditions: Compound concentration 1000.0 nM
# [9] = system: Epidermal growth factor receptor (Homo sapiens), P00533 [G719S]; conditions: Compound concentration 1000.0 nM
# [10] = molecular target: Serine/threonine-protein kinase/endoribonuclease IRE1 (Homo sapiens) (UniProt O75460); conditions: Compound concentration 1000.0 nM
# [11] = system: Receptor-type tyrosine-protein kinase FLT3 (Homo sapiens), P36888 [D835H]; conditions: Compound concentration 1000.0 nM
# [12] = system: Receptor-type tyrosine-protein kinase FLT3 (Homo sapiens), P36888 [D835Y]; conditions: Compound concentration 1000.0 nM
# [13] = molecular target: Receptor-type tyrosine-protein kinase FLT3 (Homo sapiens) (UniProt P36888); conditions: Compound concentration 1000.0 nM
# [14] = molecular target: Mitogen-activated protein kinase kinase kinase kinase 1 (Homo sapiens) (UniProt Q92918); conditions: Compound concentration 1000.0 nM
# [15] = molecular target: Hormonally up-regulated neu tumor-associated kinase (Homo sapiens) (UniProt P57058); conditions: Compound concentration 1000.0 nM
# [16] = molecular target: Mitogen-activated protein kinase 10 (Homo sapiens) (UniProt P53779); conditions: Compound concentration 1000.0 nM
# [17] = system: Mast/stem cell growth factor receptor Kit (Homo sapiens), P10721 [V559D,V654A]; conditions: Compound concentration 1000.0 nM
# [18] = molecular target: LIM domain kinase 1 (Homo sapiens) (UniProt P53667); conditions: Compound concentration 1000.0 nM
# [19] = molecular target: Serine/threonine-protein kinase 10 (Homo sapiens) (UniProt O94804); conditions: Compound concentration 1000.0 nM
# [20] = molecular target: Mitogen-activated protein kinase kinase kinase 1 (Homo sapiens) (UniProt Q13233); conditions: Compound concentration 1000.0 nM
# [21] = molecular target: Dual specificity mitogen-activated protein kinase kinase 2 (Homo sapiens) (UniProt P36507); conditions: Compound concentration 1000.0 nM
# [22] = system: Hepatocyte growth factor receptor (Homo sapiens), P08581 [Y1235D]; conditions: Compound concentration 1000.0 nM
# [23] = molecular target: Serine/threonine-protein kinase 4 (Homo sapiens) (UniProt Q13043); conditions: Compound concentration 1000.0 nM
# [24] = molecular target: Serine/threonine-protein kinase Nek7 (Homo sapiens) (UniProt Q8TDX7); conditions: Compound concentration 1000.0 nM
# [25] = molecular target: Serine/threonine-protein kinase NLK (Homo sapiens) (UniProt Q9UBE8); conditions: Compound concentration 1000.0 nM
# [26] = molecular target: Phosphatidylinositol 4,5-bisphosphate 3-kinase catalytic subunit gamma isoform (Homo sapiens) (UniProt P48736); conditions: Compound concentration 1000.0 nM
# [27] = molecular target: Phosphatidylinositol 5-phosphate 4-kinase type-2 beta (Homo sapiens) (UniProt P78356); conditions: Compound concentration 1000.0 nM
# [28] = molecular target: cGMP-dependent protein kinase 2 (Homo sapiens) (UniProt Q13237); conditions: Compound concentration 1000.0 nM
# [29] = molecular target: Ribosomal protein S6 kinase alpha-3 (Homo sapiens) (UniProt P51812); conditions: Compound concentration 1000.0 nM
# [30] = molecular target: Ribosomal protein S6 kinase alpha-6 (Homo sapiens) (UniProt Q9UK32); conditions: Compound concentration 1000.0 nM
# [31] = molecular target: Tyrosine-protein kinase Srms (Homo sapiens) (UniProt Q9H3Y6); conditions: Compound concentration 1000.0 nM
# [32] = molecular target: SRSF protein kinase 2 (Homo sapiens) (UniProt P78362); conditions: Compound concentration 1000.0 nM
# [33] = molecular target: Tyrosine-protein kinase Yes (Homo sapiens) (UniProt P07947); conditions: Compound concentration 1000.0 nM
# [34] = molecular target: 5-hydroxytryptamine receptor 5A (Homo sapiens) (UniProt P47898); conditions: Compound concentration 10.0 uM
# [35] = molecular target: Muscarinic acetylcholine receptor M2 (Homo sapiens) (UniProt P08172); conditions: Compound concentration 10.0 uM
# [36] = molecular target: Muscarinic acetylcholine receptor M3 (Homo sapiens) (UniProt P20309); conditions: Compound concentration 10.0 uM
# [37] = molecular target: T1, Alpha-1D adrenergic receptor (Homo sapiens) (UniProt P25100); conditions: Compound concentration 10.0 uM
# T1 sequence (whole entry): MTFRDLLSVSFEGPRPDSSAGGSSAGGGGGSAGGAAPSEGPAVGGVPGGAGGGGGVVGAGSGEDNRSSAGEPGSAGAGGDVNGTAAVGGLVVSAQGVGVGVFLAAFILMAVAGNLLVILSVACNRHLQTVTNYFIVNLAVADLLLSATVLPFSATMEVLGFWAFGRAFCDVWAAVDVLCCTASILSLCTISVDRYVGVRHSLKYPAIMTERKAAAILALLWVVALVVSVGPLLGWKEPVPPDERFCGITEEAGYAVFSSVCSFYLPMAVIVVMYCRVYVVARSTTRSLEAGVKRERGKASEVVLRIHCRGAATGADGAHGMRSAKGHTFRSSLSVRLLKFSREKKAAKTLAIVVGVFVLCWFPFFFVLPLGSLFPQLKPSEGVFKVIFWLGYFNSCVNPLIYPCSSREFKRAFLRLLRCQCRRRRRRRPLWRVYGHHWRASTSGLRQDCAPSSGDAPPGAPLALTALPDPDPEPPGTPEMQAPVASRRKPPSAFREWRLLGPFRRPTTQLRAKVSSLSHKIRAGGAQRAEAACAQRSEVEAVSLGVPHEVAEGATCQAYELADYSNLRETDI
# Tyrosine-protein kinase Yes (Homo sapiens), sequence (P07947 2-543 limits assumed): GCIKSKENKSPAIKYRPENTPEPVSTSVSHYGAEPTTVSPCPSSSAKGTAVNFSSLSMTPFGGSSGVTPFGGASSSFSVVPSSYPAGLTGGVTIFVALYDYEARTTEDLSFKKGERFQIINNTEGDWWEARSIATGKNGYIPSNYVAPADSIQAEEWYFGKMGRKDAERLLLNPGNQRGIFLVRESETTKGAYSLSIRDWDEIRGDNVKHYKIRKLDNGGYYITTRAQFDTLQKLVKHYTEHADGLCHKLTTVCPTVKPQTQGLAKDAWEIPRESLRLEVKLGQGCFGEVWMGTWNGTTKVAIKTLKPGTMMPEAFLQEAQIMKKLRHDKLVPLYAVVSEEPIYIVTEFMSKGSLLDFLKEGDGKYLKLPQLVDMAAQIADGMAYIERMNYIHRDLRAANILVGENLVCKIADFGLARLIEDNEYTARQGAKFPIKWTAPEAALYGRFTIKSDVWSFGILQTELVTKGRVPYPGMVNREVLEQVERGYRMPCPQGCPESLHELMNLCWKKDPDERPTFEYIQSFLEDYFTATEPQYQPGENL
# Serine/threonine-protein kinase 4 (Homo sapiens), sequence (Q13043 whole entry): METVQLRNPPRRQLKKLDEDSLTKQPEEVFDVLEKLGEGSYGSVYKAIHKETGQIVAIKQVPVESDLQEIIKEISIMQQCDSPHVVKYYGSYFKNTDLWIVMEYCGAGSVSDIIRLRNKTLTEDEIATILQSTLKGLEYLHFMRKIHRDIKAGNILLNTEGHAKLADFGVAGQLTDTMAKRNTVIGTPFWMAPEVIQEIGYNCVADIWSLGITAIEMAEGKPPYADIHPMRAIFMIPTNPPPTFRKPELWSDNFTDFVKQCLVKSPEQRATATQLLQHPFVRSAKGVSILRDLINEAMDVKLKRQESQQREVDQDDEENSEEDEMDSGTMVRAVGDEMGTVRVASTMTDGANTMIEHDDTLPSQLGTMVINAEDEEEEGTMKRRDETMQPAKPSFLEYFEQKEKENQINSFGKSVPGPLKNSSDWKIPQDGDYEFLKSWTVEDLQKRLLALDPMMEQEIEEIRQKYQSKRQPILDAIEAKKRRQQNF
# AP2-associated protein kinase 1 (Homo sapiens), sequence (Q2M2I8 whole entry, looked up): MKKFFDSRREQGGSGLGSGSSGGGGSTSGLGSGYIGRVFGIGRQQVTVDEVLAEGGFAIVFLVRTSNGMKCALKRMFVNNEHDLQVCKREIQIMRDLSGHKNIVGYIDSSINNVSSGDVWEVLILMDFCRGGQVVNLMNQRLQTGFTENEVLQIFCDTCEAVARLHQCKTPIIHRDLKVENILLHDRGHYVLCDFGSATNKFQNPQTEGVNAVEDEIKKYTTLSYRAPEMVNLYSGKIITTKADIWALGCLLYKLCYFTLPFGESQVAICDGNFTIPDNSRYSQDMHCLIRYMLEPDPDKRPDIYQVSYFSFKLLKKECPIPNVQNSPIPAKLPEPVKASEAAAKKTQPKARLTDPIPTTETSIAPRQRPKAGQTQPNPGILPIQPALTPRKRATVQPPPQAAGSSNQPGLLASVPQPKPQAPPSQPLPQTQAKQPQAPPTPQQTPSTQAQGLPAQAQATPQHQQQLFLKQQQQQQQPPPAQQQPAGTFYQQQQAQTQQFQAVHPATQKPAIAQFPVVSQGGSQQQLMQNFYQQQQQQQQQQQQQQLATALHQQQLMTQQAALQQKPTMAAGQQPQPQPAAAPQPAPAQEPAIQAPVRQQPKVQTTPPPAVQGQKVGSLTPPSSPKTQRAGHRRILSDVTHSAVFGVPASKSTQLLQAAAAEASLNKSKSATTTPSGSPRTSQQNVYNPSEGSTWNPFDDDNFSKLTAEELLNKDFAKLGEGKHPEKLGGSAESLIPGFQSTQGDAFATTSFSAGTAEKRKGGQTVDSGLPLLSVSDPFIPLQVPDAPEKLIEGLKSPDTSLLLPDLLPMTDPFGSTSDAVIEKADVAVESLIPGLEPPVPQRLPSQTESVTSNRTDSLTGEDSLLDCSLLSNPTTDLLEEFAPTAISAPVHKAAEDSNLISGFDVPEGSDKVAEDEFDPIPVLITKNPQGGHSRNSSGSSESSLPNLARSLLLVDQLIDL
# Serine/threonine-protein kinase DCLK3 (Homo sapiens), sequence (Q9C098 whole entry): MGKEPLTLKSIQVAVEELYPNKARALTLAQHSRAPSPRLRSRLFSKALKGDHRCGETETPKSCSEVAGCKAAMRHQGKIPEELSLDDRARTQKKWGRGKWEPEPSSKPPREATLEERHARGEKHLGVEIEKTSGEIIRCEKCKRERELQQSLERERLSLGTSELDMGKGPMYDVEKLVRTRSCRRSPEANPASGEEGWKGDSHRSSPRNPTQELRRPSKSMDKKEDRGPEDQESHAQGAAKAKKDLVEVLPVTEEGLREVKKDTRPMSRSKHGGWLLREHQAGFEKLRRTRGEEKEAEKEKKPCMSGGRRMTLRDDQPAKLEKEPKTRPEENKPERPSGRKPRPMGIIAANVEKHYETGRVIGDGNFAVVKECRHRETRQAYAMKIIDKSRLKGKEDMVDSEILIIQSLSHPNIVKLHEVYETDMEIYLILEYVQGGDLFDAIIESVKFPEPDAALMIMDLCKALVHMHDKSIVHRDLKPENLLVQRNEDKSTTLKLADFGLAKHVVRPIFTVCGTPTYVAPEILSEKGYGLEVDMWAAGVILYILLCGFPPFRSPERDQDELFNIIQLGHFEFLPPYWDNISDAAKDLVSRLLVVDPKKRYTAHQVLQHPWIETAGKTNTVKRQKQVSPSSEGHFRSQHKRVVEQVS
# Serine/threonine-protein kinase/endoribonuclease IRE1 (Homo sapiens), sequence (O75460 19-977 limits assumed): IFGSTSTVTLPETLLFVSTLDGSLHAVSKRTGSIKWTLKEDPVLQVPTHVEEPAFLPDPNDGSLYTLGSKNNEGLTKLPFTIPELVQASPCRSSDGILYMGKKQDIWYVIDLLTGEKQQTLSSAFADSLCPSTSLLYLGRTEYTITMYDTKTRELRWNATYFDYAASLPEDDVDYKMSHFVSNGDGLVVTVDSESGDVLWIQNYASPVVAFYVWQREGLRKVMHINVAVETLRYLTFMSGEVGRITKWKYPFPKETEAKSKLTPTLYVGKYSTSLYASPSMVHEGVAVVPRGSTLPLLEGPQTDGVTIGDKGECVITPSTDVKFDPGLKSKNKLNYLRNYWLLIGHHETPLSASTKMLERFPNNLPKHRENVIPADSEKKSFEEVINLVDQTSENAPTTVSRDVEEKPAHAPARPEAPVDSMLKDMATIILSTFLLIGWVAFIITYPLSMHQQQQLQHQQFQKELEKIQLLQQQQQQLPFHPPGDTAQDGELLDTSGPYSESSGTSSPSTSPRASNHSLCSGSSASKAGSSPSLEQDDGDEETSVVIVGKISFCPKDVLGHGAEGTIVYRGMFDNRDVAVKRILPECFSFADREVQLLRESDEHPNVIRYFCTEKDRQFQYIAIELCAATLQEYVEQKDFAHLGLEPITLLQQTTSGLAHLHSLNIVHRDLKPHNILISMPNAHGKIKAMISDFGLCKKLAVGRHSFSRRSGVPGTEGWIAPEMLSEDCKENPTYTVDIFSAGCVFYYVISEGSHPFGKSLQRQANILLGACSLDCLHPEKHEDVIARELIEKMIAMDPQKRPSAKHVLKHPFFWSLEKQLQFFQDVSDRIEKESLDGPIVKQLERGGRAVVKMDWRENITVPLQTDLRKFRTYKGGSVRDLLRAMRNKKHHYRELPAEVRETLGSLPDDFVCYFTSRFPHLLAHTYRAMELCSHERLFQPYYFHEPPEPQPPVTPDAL
# Mitogen-activated protein kinase kinase kinase kinase 1 (Homo sapiens), sequence (Q92918 whole entry, looked up): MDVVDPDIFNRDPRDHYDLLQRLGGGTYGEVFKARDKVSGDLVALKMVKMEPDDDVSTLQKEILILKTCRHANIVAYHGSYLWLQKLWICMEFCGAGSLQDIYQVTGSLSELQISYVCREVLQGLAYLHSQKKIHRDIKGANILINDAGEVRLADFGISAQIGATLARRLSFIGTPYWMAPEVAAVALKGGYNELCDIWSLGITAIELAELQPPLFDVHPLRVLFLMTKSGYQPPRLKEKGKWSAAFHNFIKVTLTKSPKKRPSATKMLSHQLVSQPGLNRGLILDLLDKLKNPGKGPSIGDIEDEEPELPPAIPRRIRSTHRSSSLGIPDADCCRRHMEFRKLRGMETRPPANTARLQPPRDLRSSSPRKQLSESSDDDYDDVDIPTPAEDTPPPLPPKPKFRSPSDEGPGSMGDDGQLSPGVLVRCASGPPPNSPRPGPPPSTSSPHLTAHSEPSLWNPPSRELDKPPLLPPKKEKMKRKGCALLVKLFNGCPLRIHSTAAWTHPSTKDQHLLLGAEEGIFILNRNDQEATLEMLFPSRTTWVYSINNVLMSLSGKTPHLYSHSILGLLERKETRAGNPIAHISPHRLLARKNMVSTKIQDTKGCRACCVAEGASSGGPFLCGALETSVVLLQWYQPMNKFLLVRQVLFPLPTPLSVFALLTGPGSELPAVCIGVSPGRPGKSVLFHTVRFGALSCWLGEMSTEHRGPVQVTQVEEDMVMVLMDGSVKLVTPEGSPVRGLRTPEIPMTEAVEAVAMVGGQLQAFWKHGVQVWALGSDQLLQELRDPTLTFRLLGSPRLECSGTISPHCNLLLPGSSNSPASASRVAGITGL
# Activin receptor type-1 (Homo sapiens), sequence (Q04771 whole entry): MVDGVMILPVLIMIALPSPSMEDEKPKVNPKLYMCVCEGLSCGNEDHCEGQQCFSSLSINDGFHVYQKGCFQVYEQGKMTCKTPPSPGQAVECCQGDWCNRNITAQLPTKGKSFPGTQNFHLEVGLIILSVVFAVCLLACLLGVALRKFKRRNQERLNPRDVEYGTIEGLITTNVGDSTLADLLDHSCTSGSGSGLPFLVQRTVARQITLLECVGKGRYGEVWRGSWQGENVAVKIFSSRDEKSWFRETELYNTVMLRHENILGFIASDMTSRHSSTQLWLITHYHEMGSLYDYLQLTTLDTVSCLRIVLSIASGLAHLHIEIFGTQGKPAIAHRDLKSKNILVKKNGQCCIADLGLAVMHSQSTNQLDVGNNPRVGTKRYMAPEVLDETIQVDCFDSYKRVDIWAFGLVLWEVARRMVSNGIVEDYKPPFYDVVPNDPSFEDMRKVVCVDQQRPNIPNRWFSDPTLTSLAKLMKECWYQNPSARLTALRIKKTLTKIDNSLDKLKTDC
SMILES,Ki [1],residual activity [2],residual activity [3],residual activity [4],residual activity [5],residual activity [6],residual activity [7],residual activity [8],residual activity [9],residual activity [10],residual activity [11],residual activity [12],residual activity [13],residual activity [14],residual activity [15],residual activity [16],residual activity [17],residual activity [18],residual activity [19],residual activity [20],further results
Cc1c(C(=O)O)cc(-c2ccc(C3CCNCC3)cc2)c2ccc(-c3ccc(C(F)(F)F)cc3)cc12 [PPTN-NC],1170 nM,100%,100%,82%,100%,100%,100%,100%,94%,100%,90%,100%,100%,90%,100%,100%,100%,100%,100%,100%,residual activity [21]: 100%; residual activity [22]: 100%; residual activity [23]: 95%; residual activity [24]: 100%; residual activity [25]: 100%; residual activity [26]: 100%; residual activity [27]: 86%; residual activity [28]: 71%; residual activity [29]: 100%; residual activity [30]: 100%; residual activity [31]: 100%; residual activity [32]: 82%; residual activity [33]: 100%; inhibition [34]: -0.81%; inhibition [35]: 19.3%; inhibition [36]: 0.06%; inhibition [37]: 13.3%
O=C(O)c1cc(-c2ccc(C3CCNCC3)cc2)c2ccc(-c3ccc(C(F)(F)F)cc3)cc2c1 [PPTN],1180 nM,100%,90%,74%,100%,100%,100%,100%,100%,100%,81%,100%,100%,96%,100%,100%,100%,100%,100%,100%,residual activity [21]: 90%; residual activity [22]: 100%; residual activity [23]: 98%; residual activity [24]: 100%; residual activity [25]: 100%; residual activity [26]: 92%; residual activity [27]: 91%; residual activity [28]: 79%; residual activity [29]: 100%; residual activity [30]: 100%; residual activity [31]: 100%; residual activity [32]: 100%; residual activity [33]: 100%; inhibition [34]: 4.98%; inhibition [35]: 10.9%; inhibition [36]: 9.47%; inhibition [37]: 33.5%
